Measurements from US20230000940A1, “Composition for prevention or treatment of Porcine epidemic diarrhea virus infection comprising curcuminoid and licorice extracts or fraction thereof” (KOREA RESEARCH INSTITUTE OF BIOSCIENCE AND BIOTECHNOLOGY, priority 2019, published 2023).

Legend:
TNF-α = test: Inhibitory effect on TNF-α in PED coronavirus-infected Vero cells; type: cell-based; details: 10 μM, vs virus-infected group
Protocol: To investigate the inhibitory effect of the complex on TNF-α, which is a pro-inflammatory cytokine involved in promoting inflammation, virus infection was performed in the same manner as in Example 2-1, followed by treatment with the complex.

[1] = tested on: nucleoprotein (N protein) of the PED coronavirus; details: 10 μM, vs virus-infected group
Protocol: To investigate the target protein expression inhibitory effect of the complex on the nucleoprotein (N protein) of the PED coronavirus, Vero cells were infected with 0.001 MOI of PED coronavirus for 1 hour.

IL-8 = test: Inhibitory effect on IL-8 in PED coronavirus-infected Vero cells; type: cell-based; details: 10 μM, vs virus-infected group
Protocol: To investigate the inhibitory effect of the complex on IL-8, which is a pro-inflammatory cytokine involved in promoting inflammation, virus infection was performed in the same manner as in Example 2-1, followed by treatment with the complex.

IL-6 = test: Inhibitory effect on IL-6 in PED coronavirus-infected Vero cells; type: cell-based; details: 10 μM, vs virus-infected group
Protocol: To investigate the inhibitory effect of the complex on IL-6, which is a pro-inflammatory cytokine involved in promoting inflammation, virus infection was performed in the same manner as in Example 2-1, followed by treatment with the complex.

PED coronavirus = details: component alone; statement without data; cited from earlier work

| Compound | inhibitory effect on TNF-α (TNF-α) | nucleoprotein synthesis inhibition (inhibitory effect) [1] | inhibitory effect on IL-8 (IL-8) | inhibitory effect on IL-6 (IL-6) | inhibitory effect against PED coronavirus (PED coronavirus) |
| --- | --- | --- | --- | --- | --- |
| O=c1cnn([C@@H]2O[C@H](CO)[C@@H](O)[C@H]2O)c(=O)[nH]1 [6-azauridine] | 3.8 fold | 6.8 fold | 25.4 fold | 5.8 fold |  |
| COc1cc(/C=C/C(=O)/C=C(O)/C=C/c2ccc(O)c(OC)c2)ccc1O [curcumin] |  |  |  |  | no inhibitory effect |
